From PubChem BioAssay (NCI)
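Protocol summary: plate cells (96-well), add compound at 5 concentrations, incubate 48 h, interpolate endpoints linearly. The concentration for full growth arrest is given as TGI.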

Legend:
Assay in all cases: inhibition of tumour cell growth, NCI panel, 48 h
[1] = tested on: HCT-15 colon
[2] = tested on: COLO 205 colon
[3] = tested on: RPMI-8226 leukemia
[4] = tested on: NCI-H23 lung
[5] = tested on: CAKI-1 renal
[6] = tested on: PC-3 prostate
[7] = tested on: HOP-92 NSCLC
[8] = tested on: MALME-3M melanoma
[9] = tested on: BT-549 breast
[10] = tested on: IGROV1 ovarian
[11] = tested on: MDA-N
[12] = tested on: 786-0 renal
[13] = tested on: HCT-116 colon
[14] = tested on: UO-31 renal
[15] = tested on: SK-MEL-2 melanoma
[16] = tested on: NCI-H522 lung
[17] = tested on: SN12C renal
[18] = tested on: SNB-19 CNS
[19] = tested on: SF-268 CNS
[20] = tested on: HS 578T breast
[21] = tested on: SW-620 colon
[22] = tested on: SF-295 CNS
[23] = tested on: CCRF-CEM leukemia
[24] = tested on: SF-539 CNS
[25] = tested on: NCI/ADR-RES ovarian
[26] = tested on: K-562 leukemia
[27] = tested on: TK-10 renal
[28] = tested on: ACHN renal
[29] = tested on: MOLT-4 leukemia
[30] = tested on: SNB-75 CNS
[31] = tested on: UACC-62 melanoma
[32] = tested on: KM12 colon
[33] = tested on: HL-60(TB) leukemia
[34] = tested on: MDA-MB-231 breast
[35] = tested on: MCF7 breast
[36] = tested on: NCI-H460 lung
[37] = tested on: MDA-MB-435
[38] = tested on: SR leukemia
[39] = tested on: T-47D breast
[40] = tested on: HCC-2998 colon
[41] = tested on: M14 melanoma
[42] = tested on: OVCAR-8 ovarian
[43] = tested on: SK-OV-3 ovarian
[44] = tested on: EKVX NSCLC
[45] = tested on: OVCAR-5 ovarian
[46] = tested on: SK-MEL-5 melanoma
[47] = tested on: SK-MEL-28 melanoma
[48] = tested on: A549 NSCLC
[49] = tested on: UACC-257 melanoma
[50] = tested on: OVCAR-4 ovarian
[51] = tested on: RXF 393 renal
[52] = tested on: NCI-H226 lung
[53] = tested on: OVCAR-3 ovarian
[54] = tested on: DU-145 prostate
[55] = tested on: HT29 colon
[56] = tested on: U251 CNS
[57] = tested on: HOP-62 NSCLC
[58] = tested on: A498 renal
[59] = tested on: LOX IMVI melanoma

N#Cc1c(N)c2c(c(-c3ccccc3)c1-c1ccccc1)C(=O)N(N)C2=O
TGI [1]: > 100 µM | TGI [2]: > 100 µM | TGI [3]: > 100 µM | TGI [4]: > 100 µM | TGI [5]: > 100 µM | TGI [6]: > 100 µM | TGI [7]: > 100 µM | TGI [8]: > 100 µM | TGI [9]: > 100 µM | TGI [10]: > 100 µM | TGI [11]: > 100 µM | TGI [12]: > 100 µM | TGI [13]: > 100 µM | TGI [14]: > 100 µM | TGI [15]: > 100 µM | TGI [16]: > 100 µM | TGI [17]: > 100 µM | TGI [18]: > 100 µM | TGI [19]: > 100 µM | TGI [20]: > 100 µM | TGI [21]: > 100 µM | TGI [22]: > 100 µM | TGI [23]: > 100 µM | TGI [24]: > 100 µM | TGI [25]: > 100 µM | TGI [26]: > 100 µM | TGI [27]: > 100 µM | TGI [28]: > 100 µM | TGI [29]: > 100 µM | TGI [30]: > 100 µM | TGI [31]: > 100 µM | TGI [32]: > 100 µM | TGI [33]: > 100 µM | TGI [34]: > 100 µM | TGI [35]: > 100 µM | TGI [36]: > 100 µM | TGI [37]: > 100 µM | TGI [38]: > 100 µM | TGI [39]: > 100 µM | TGI [40]: > 100 µM | TGI [41]: > 100 µM | TGI [42]: > 100 µM | TGI [43]: > 100 µM | TGI [44]: > 100 µM | TGI [45]: > 100 µM | TGI [46]: > 100 µM | TGI [47]: > 100 µM | TGI [48]: > 100 µM | TGI [49]: > 100 µM | TGI [50]: > 100 µM | TGI [51]: > 100 µM | TGI [52]: > 100 µM | TGI [53]: > 100 µM | TGI [54]: > 100 µM | TGI [55]: > 100 µM | TGI [56]: > 100 µM

Clc1cc(OC23CC4CC(CC(C4)C2)C3)nc(Cl)n1
TGI [57]: > 100 µM | TGI [1]: > 100 µM | TGI [2]: > 100 µM | TGI [3]: > 100 µM | TGI [4]: > 100 µM | TGI [6]: > 100 µM | TGI [7]: 3.5 µM | TGI [8]: > 100 µM | TGI [9]: > 100 µM | TGI [10]: > 100 µM | TGI [11]: > 100 µM | TGI [12]: > 100 µM | TGI [13]: > 100 µM | TGI [14]: 87.5 µM | TGI [15]: > 100 µM | TGI [16]: > 100 µM | TGI [17]: > 100 µM | TGI [18]: > 100 µM | TGI [19]: > 100 µM | TGI [20]: 54.3 µM | TGI [21]: > 100 µM | TGI [58]: > 100 µM | TGI [22]: > 100 µM | TGI [23]: 86.2 µM | TGI [24]: > 100 µM | TGI [25]: > 100 µM | TGI [26]: > 100 µM | TGI [59]: 36.1 µM | TGI [27]: > 100 µM | TGI [28]: > 100 µM | TGI [29]: > 100 µM | TGI [30]: > 100 µM | TGI [31]: > 100 µM | TGI [32]: > 100 µM | TGI [33]: 29.7 µM | TGI [34]: > 100 µM | TGI [35]: > 100 µM | TGI [36]: > 100 µM | TGI [37]: > 100 µM | TGI [38]: 48.4 µM | TGI [39]: > 100 µM | TGI [40]: 29.6 µM | TGI [41]: > 100 µM | TGI [42]: > 100 µM | TGI [43]: > 100 µM | TGI [44]: > 100 µM | TGI [45]: > 100 µM | TGI [46]: > 100 µM | TGI [47]: > 100 µM | TGI [48]: > 100 µM | TGI [49]: > 100 µM | TGI [50]: > 100 µM | TGI [51]: 85.8 µM | TGI [53]: > 100 µM | TGI [54]: > 100 µM | TGI [55]: > 100 µM | TGI [56]: > 100 µM
